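Tested at 5 concentrations; 48 h exposure; 96-well plates; endpoints linearly interpolated, else capped at highest concentration. TGI denotes the concentration required for complete inhibition of growth.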

Among the test systems are SK-MEL-5 melanoma; UACC-62 melanoma; OVCAR-4 ovarian; NCI-H460 lung; OVCAR-5 ovarian; HCT-116 colon; SW-620 colon; SK-OV-3 ovarian; MOLT-4 leukemia; 786-0 renal; A549 NSCLC.
Assay in all cases: NCI tumour cell line growth inhibition, 48 h

With `O=C1c2ccc(O)cc2C(=O)c2ccc(O)cc21`, the TGI with SK-MEL-5 melanoma, in the test with UACC-62 melanoma, in the test on OVCAR-4 ovarian, in the test on NCI-H460 lung, with OVCAR-5 ovarian and in the test on HCT-116 colon was over 100 µM in each case. The TGI is over 100 µM in the test on SW-620 colon; 84.8 µM with SK-OV-3 ovarian; over 100 µM in the test with MOLT-4 leukemia; over 100 µM in the test with 786-0 renal; over 100 µM in the test with A549 NSCLC.

With `CCOC(=O)C1=CNC(C(=O)OCC)C1c1cccn1-c1ccc(Cl)cc1[N+](=O)[O-]` (stereo not given), the TGI came out at 30.3 µM in the test on SK-MEL-5 melanoma; 35 µM with UACC-62 melanoma; 98.3 µM with OVCAR-4 ovarian; 61.3 µM in the test on NCI-H460 lung; 60.3 µM in the test with OVCAR-5 ovarian; 35.7 µM with HCT-116 colon. In addition, the TGI in the test with SW-620 colon is over 100 µM; with SK-OV-3 ovarian, over 100 µM; in the test on MOLT-4 leukemia, 59.5 µM; in the test on 786-0 renal it was 45.9 µM; in the test with A549 NSCLC it was over 100 µM.

`S=C(NC1=NCC(CN2CCN(c3ccccc3)CC2)O1)Nc1ccccc1` (stereo not given): the TGI in the test with SK-MEL-5 melanoma, with UACC-62 melanoma, in the test on OVCAR-4 ovarian, in the test on NCI-H460 lung, in the test on OVCAR-5 ovarian and in the test on HCT-116 colon was over 100 µM throughout. Besides, the TGI with SW-620 colon, in the test on SK-OV-3 ovarian, with MOLT-4 leukemia, in the test on 786-0 renal and in the test with A549 NSCLC was over 100 µM each time.

With `N/C(=N\S(=O)(=O)c1ccc(S(=O)(=O)c2ccccc2)s1)Nc1ccc(Cl)cc1`, the TGI in the test on SK-MEL-5 melanoma came out at 32.5 µM; in the test on UACC-62 melanoma it was 24.4 µM; with OVCAR-4 ovarian it was 94.8 µM; with NCI-H460 lung, 33.8 µM; in the test on OVCAR-5 ovarian, 97.6 µM; in the test with HCT-116 colon, 32.9 µM. Besides, the TGI in the test with SW-620 colon is 44.8 µM; in the test with SK-OV-3 ovarian, over 100 µM; in the test with MOLT-4 leukemia it was 59.6 µM; in the test with 786-0 renal, 41.5 µM; in the test with A549 NSCLC it was over 100 µM.

As to `COc1ccc2nc3c([N+](=O)[O-])ccc4c3c(c2c1)NCCN4CCO`, the TGI in the test on SK-MEL-5 melanoma was 1.15 µM; in the test with UACC-62 melanoma, 1.07 µM; in the test on OVCAR-4 ovarian it was 2.39 µM; in the test with NCI-H460 lung, 1.18 µM; with OVCAR-5 ovarian, 2.95 µM; in the test on HCT-116 colon it was 1.22 µM. The TGI worked out at 3.1 µM in the test with SW-620 colon; 3.58 µM with SK-OV-3 ovarian; 0.806 µM with MOLT-4 leukemia; 1.46 µM in the test with 786-0 renal; 2.68 µM in the test with A549 NSCLC.

For the origin of these results see PubChem BioAssay (NCI).
